In patent US12281149B2, “Modulators of G-protein coupled receptors” (priority 2021, dated 2025) one finds EC50 and Emax data, which are given here for five compounds.

pEC50: −log10 of the molar value. *1 amine or outer side, *2 acyl side, *3 side chain or, on linkers, in order; H or OH if unused. Where a SMILES comes first, the peptide text is derived from it. Side-chain parts run from the residue outwards. [ ]: non-standard residue; d: D form. The star is where a group is joined. Isobutyryl(2-(3-CN-5-F-Ph)) = CC(C)(C(=O)*)c1cc(F)cc(C#N)c1; Azetidine3carboxylic = O=C(C1CN([*:1])C1)[*:2]; C20 diacid = O=C(O)CCCCCCCCCCCCCCCCCCC(=O)*; γGlu = O=C(O)[C@H](CCC(=O)[*:2])N[*:1]; X84 = O=C([C@H]1CCCN([*:1])C1)[*:2]; X18 = O=C(C1(c2cccc(F)c2)CCCC1)*; X30 = CC(C)(C(=O)*)c1ccc(F)cc1; X41 = C[C@H](C(=O)*)c1ccccc1; AEEA = NCCOCCOCC(=O)O; Aib = CC(C)(N)C(=O)O; βAla = NCCC(=O)O

Format in all cases: cell-based
For assay [1], the target named is T1, GLP-1 receptor (Homo sapiens, UniProt P43220). Put plainly: HitHunter cAMP assay, GLP-1 receptor. To be noted: for pEC50: CHO cells stably expressing human GLP-1 receptor, cAMP accumulation, 30 min, read-out: EC50 GLP-1R; for Emax: CHO cells, cAMP, normalized to maximum signal from GLP-1 (high) and DMSO (low), read-out: Emax GLP-1R.
T1 sequence (P43220 24-463): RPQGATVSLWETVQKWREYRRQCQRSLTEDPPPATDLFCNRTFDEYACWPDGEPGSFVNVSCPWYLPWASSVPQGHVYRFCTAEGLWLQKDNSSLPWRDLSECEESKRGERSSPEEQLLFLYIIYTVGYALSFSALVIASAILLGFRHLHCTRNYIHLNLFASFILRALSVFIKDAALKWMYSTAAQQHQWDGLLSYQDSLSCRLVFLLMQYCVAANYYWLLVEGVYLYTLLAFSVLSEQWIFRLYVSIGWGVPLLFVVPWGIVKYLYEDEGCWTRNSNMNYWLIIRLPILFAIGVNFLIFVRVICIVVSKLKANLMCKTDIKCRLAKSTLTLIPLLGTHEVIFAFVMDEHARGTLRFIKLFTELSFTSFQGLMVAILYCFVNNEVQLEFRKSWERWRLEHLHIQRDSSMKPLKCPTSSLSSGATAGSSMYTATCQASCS
Assay [2] deals with T2, GIP receptor (Homo sapiens, UniProt P48546).
T2 sequence (P48546 22-466): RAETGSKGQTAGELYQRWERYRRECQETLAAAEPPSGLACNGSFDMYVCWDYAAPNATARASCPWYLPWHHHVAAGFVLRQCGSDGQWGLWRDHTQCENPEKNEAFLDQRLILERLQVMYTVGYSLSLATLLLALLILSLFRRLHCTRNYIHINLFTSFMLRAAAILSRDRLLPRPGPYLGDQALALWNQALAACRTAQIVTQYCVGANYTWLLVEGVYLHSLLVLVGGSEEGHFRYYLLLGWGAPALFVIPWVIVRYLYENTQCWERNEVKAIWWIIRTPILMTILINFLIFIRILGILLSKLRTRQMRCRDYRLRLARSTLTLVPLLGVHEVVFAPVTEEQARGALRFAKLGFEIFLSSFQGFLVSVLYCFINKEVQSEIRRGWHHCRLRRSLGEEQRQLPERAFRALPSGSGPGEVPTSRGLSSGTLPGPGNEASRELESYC
Put plainly: HitHunter cAMP assay, GIP receptor. To be noted: for pEC50: CHO cells stably expressing GIP receptor, cAMP accumulation, 30 min, read-out: EC50 GIP-1R; for Emax: CHO cells, cAMP, normalized to maximum signal from GIP (high) and DMSO (low), read-out: Emax GIP-1R. Background: Changes in cAMP serve as a functional read-out for many G protein-coupled receptors.

For assay [3], the target named is T2, GIP receptor. Put plainly: PathHunter β-arrestin assay, GIP receptor. Also noted: host or cells: PathHunter CHO-K1 GIPR β-Arrestin Cell Line. The following applies: β-arrestin-2 recruitment, PathHunter CHO-K1 GIPR β-Arrestin Cell Line, 90 min at 37° C.; normalized to GIP; read-out: GIPR β Arrestin EC50.
In assay [4] the target is T1, GLP-1 receptor. As to the kind of experiment: PathHunter β-arrestin assay, GLP-1 receptor. The following applies: β-arrestin-2 recruitment, PathHunter CHO-K1 GLP1R β-Arrestin Cell Line, 90 min at 37° C.; normalized to GLP-1; read-out: GLP-1R β Arrestin EC50. Also noted: host or cells: PathHunter CHO-K1 GLP1R β-Arrestin Cell Line. On the technique in general: Arrestin recruitment assays detect the binding of arrestin to an activated receptor.

Regarding `CC[C@H](C)[C@H](NC(=O)[C@H](CC(C)C)NC(=O)[C@H](Cc1c[nH]c2ccccc12)NC(=O)[C@H](CCC(N)=O)NC(=O)[C@@H](NC(=O)[C@H](Cc1ccccc1)NC(=O)[C@H](C)NC(=O)[C@H](CCCCNC(=O)COCCOCCNC(=O)COCCOCCNC(=O)CC[C@H](NC(=O)CCCCCCCCCCCCCCCCCCC(=O)O)C(=O)O)NC(=O)[C@H](CCC(N)=O)NC(=O)[C@H](C)NC(=O)[C@@H](NC(=O)[C@H](CCCCN)NC(=O)[C@H](CC(=O)O)NC(=O)[C@H](CC(C)C)NC(=O)C(C)(C)NC(=O)[C@@H](NC(=O)[C@H](CO)NC(=O)[C@H](Cc1ccc(O)cc1)NC(=O)[C@H](CC(=O)O)NC(=O)[C@H](CO)NC(=O)[C@@H](NC(=O)[C@H](Cc1ccccc1)NC(=O)[C@@H](NC(=O)CNC(=O)[C@H](CCC(=O)O)NC(=O)CCNC(=O)C(C)(C)c1ccc(F)cc1)[C@@H](C)O)[C@@H](C)O)[C@@H](C)CC)[C@@H](C)CC)C(C)C)C(=O)N[C@@H](C)C(=O)NCC(=O)NCC(=O)N1CCC[C@H]1C(=O)N[C@@H](CO)C(=O)N[C@@H](CO)C(=O)NCC(=O)N[C@@H](C)C(=O)N1CCC[C@H]1C(=O)N1CCC[C@H]1C(=O)N1CCC[C@H]1C(=O)N[C@@H](CO)C(N)=O` [Compound 210] ({X30-βAla}-EGTFTSDYSI[Aib]LDKIAQK([AEEA-AEEA-γGlu-C20 diacid])AFVQWLIAGGPSSGAPPPS-NH2), the pEC50 in assay [1] is 9.00 to 10.00; in assay [2] it was 8.00 to 9.00; in assay [3] it was less than 6.00; in assay [4], less than 6.00. Besides, the Emax in assay [1] is 104%; in assay [2], 101%.
Regarding `CC[C@H](C)[C@H](NC(=O)[C@H](CC(C)C)NC(=O)[C@H](Cc1c[nH]c2ccccc12)NC(=O)[C@H](CCC(N)=O)NC(=O)[C@@H](NC(=O)[C@H](Cc1ccccc1)NC(=O)[C@H](C)NC(=O)[C@H](CCCCNC(=O)COCCOCCNC(=O)COCCOCCNC(=O)CC[C@H](NC(=O)CCCCCCCCCCCCCCCCCCC(=O)O)C(=O)O)NC(=O)[C@H](CCC(N)=O)NC(=O)[C@H](C)NC(=O)[C@@H](NC(=O)[C@H](CCCCN)NC(=O)[C@H](CC(=O)O)NC(=O)[C@H](CC(C)C)NC(=O)C(C)(C)NC(=O)[C@@H](NC(=O)[C@H](CO)NC(=O)[C@H](Cc1ccc(O)cc1)NC(=O)[C@H](CC(=O)O)NC(=O)[C@H](CO)NC(=O)[C@@H](NC(=O)[C@H](Cc1ccccc1)NC(=O)[C@@H](NC(=O)CNC(=O)[C@H](CCC(=O)O)NC(=O)CCNC(=O)[C@@H](C)c1ccccc1)[C@@H](C)O)[C@@H](C)O)[C@@H](C)CC)[C@@H](C)CC)C(C)C)C(=O)N[C@@H](C)C(=O)NCC(=O)NCC(=O)N1CCC[C@H]1C(=O)N[C@@H](CO)C(=O)N[C@@H](CO)C(=O)NCC(=O)N[C@@H](C)C(=O)N1CCC[C@H]1C(=O)N1CCC[C@H]1C(=O)N1CCC[C@H]1C(=O)N[C@@H](CO)C(N)=O` [Compound 211] ({X41-βAla}-EGTFTSDYSI[Aib]LDKIAQK([AEEA-AEEA-γGlu-C20 diacid])AFVQWLIAGGPSSGAPPPS-NH2), the pEC50 in assay [1] was 9.00 to 10.00; in assay [2] it was 7.00 to 8.00; in assay [3], less than 6.00; in assay [4] it was less than 6.00. Moreover, the maximal effect (Emax) in assay [1] was 107%; in assay [2], 103%.
Take `CC[C@H](C)[C@H](NC(=O)[C@H](CC(C)C)NC(=O)[C@H](Cc1c[nH]c2ccccc12)NC(=O)[C@H](CCC(N)=O)NC(=O)[C@@H](NC(=O)[C@H](Cc1ccccc1)NC(=O)[C@H](C)NC(=O)[C@H](CCCCNC(=O)COCCOCCNC(=O)COCCOCCNC(=O)CC[C@H](NC(=O)CCCCCCCCCCCCCCCCCCC(=O)O)C(=O)O)NC(=O)[C@H](CCC(N)=O)NC(=O)[C@H](C)NC(=O)[C@@H](NC(=O)[C@H](CCCCN)NC(=O)[C@H](CC(=O)O)NC(=O)[C@H](CC(C)C)NC(=O)C(C)(C)NC(=O)[C@@H](NC(=O)[C@H](CO)NC(=O)[C@H](Cc1ccc(O)cc1)NC(=O)[C@H](CC(=O)O)NC(=O)[C@H](CO)NC(=O)[C@@H](NC(=O)[C@H](Cc1ccccc1)NC(=O)[C@@H](NC(=O)CNC(=O)[C@H](CCC(=O)O)NC(=O)[C@H]1CCCN(C(=O)C(C)(C)c2cc(F)cc(C#N)c2)C1)[C@@H](C)O)[C@@H](C)O)[C@@H](C)CC)[C@@H](C)CC)C(C)C)C(=O)N[C@@H](C)C(=O)NCC(=O)NCC(=O)N1CCC[C@H]1C(=O)N[C@@H](CO)C(=O)N[C@@H](CO)C(=O)NCC(=O)N[C@@H](C)C(=O)N1CCC[C@H]1C(=O)N1CCC[C@H]1C(=O)N1CCC[C@H]1C(=O)N[C@@H](CO)C(N)=O` [Compound 212] ({Isobutyryl(2-(3-CN-5-F-Ph))}-[X84]EGTFTSDYSI[Aib]LDKIAQK([AEEA-AEEA-γGlu-C20 diacid])AFVQWLIAGGPSSGAPPPS-NH2): the pEC50 is 7.00 to 8.00 in assay [1], less than 6.00 in assay [2], less than 6.00 in assay [3] and less than 6.00 in assay [4]. Moreover, the maximal effect (Emax) in assay [1] is 89%.
In the case of `CC[C@H](C)[C@H](NC(=O)[C@H](CC(C)C)NC(=O)[C@H](Cc1c[nH]c2ccccc12)NC(=O)[C@H](CCC(N)=O)NC(=O)[C@@H](NC(=O)[C@H](Cc1ccccc1)NC(=O)[C@H](C)NC(=O)[C@H](CCCCNC(=O)COCCOCCNC(=O)COCCOCCNC(=O)CC[C@H](NC(=O)CCCCCCCCCCCCCCCCCCC(=O)O)C(=O)O)NC(=O)[C@H](CCC(N)=O)NC(=O)[C@H](C)NC(=O)[C@@H](NC(=O)[C@H](CCCCN)NC(=O)[C@H](CC(=O)O)NC(=O)[C@H](CC(C)C)NC(=O)C(C)(C)NC(=O)[C@@H](NC(=O)[C@H](CO)NC(=O)[C@H](Cc1ccc(O)cc1)NC(=O)[C@H](CC(=O)O)NC(=O)[C@H](CO)NC(=O)[C@@H](NC(=O)[C@H](Cc1ccccc1)NC(=O)[C@@H](NC(=O)CNC(=O)[C@H](CCC(=O)O)NC(=O)C1CN(C(=O)C(C)(C)c2cc(F)cc(C#N)c2)C1)[C@@H](C)O)[C@@H](C)O)[C@@H](C)CC)[C@@H](C)CC)C(C)C)C(=O)N[C@@H](C)C(=O)NCC(=O)NCC(=O)N1CCC[C@H]1C(=O)N[C@@H](CO)C(=O)N[C@@H](CO)C(=O)NCC(=O)N[C@@H](C)C(=O)N1CCC[C@H]1C(=O)N1CCC[C@H]1C(=O)N1CCC[C@H]1C(=O)N[C@@H](CO)C(N)=O` [Compound 213] ({Isobutyryl(2-(3-CN-5-F-Ph))}-[Azetidine3carboxylic]EGTFTSDYSI[Aib]LDKIAQK([AEEA-AEEA-γGlu-C20 diacid])AFVQWLIAGGPSSGAPPPS-NH2), the pEC50 in assay [1] was 6.00 to 7.00; in assay [2], 6.00 to 7.00; in assay [3], less than 6.00; in assay [4], less than 6.00. For the same compound, the results for the Emax in assay [1] and in assay [2] were 78% and 92%, respectively.
As to `CC[C@H](C)[C@H](NC(=O)[C@H](CC(C)C)NC(=O)[C@H](Cc1c[nH]c2ccccc12)NC(=O)[C@H](CCC(N)=O)NC(=O)[C@@H](NC(=O)[C@H](Cc1ccccc1)NC(=O)[C@H](C)NC(=O)[C@H](CCCCNC(=O)COCCOCCNC(=O)COCCOCCNC(=O)CC[C@H](NC(=O)CCCCCCCCCCCCCCCCCCC(=O)O)C(=O)O)NC(=O)[C@H](CCC(N)=O)NC(=O)[C@H](C)NC(=O)[C@@H](NC(=O)[C@H](CCCCN)NC(=O)[C@H](CC(=O)O)NC(=O)[C@H](CC(C)C)NC(=O)C(C)(C)NC(=O)[C@@H](NC(=O)[C@H](CO)NC(=O)[C@H](Cc1ccc(O)cc1)NC(=O)[C@H](CC(=O)O)NC(=O)[C@H](CO)NC(=O)[C@@H](NC(=O)[C@H](Cc1ccccc1)NC(=O)[C@@H](NC(=O)CNC(=O)[C@H](CCC(=O)O)NC(=O)CCNC(=O)C1(c2cccc(F)c2)CCCC1)[C@@H](C)O)[C@@H](C)O)[C@@H](C)CC)[C@@H](C)CC)C(C)C)C(=O)N[C@@H](C)C(=O)NCC(=O)NCC(=O)N1CCC[C@H]1C(=O)N[C@@H](CO)C(=O)N[C@@H](CO)C(=O)NCC(=O)N[C@@H](C)C(=O)N1CCC[C@H]1C(=O)N1CCC[C@H]1C(=O)N1CCC[C@H]1C(=O)N[C@@H](CO)C(N)=O` [Compound 214] ({X18-βAla}-EGTFTSDYSI[Aib]LDKIAQK([AEEA-AEEA-γGlu-C20 diacid])AFVQWLIAGGPSSGAPPPS-NH2), the negative-log EC50 (pEC50) in assay [1] was 9.00 to 10.00; in assay [2], 9.00 to 10.00; in assay [3], less than 6.00; in assay [4], less than 6.00. The values for the maximum response (Emax) in assay [1] and in assay [2] were 97% and 101%, respectively.

Usually pEC50 stands for the EC50 on a negative log10 scale, so that one unit is a factor of ten. The term Emax denotes the maximal effect, on the per cent scale that the assay sets.
